Drawing on patent publication US11932658B2 (BRISTOL-MYERS SQUIBB COMPANY, priority 2016, dated 2024), this text covers IC50 for 19 molecules.

The term IC50 denotes the concentration at which inhibition is half-maximal.

The target of the assay is T1, PAR4 (Homo sapiens, UniProt Q96RI0).
T1 construct: expressed in transfected cells; host or cells: HEK293 PAR4 Clone 1.2A (BMS Arctic ID 383940)
T1 sequence (Q96RI0 18-385): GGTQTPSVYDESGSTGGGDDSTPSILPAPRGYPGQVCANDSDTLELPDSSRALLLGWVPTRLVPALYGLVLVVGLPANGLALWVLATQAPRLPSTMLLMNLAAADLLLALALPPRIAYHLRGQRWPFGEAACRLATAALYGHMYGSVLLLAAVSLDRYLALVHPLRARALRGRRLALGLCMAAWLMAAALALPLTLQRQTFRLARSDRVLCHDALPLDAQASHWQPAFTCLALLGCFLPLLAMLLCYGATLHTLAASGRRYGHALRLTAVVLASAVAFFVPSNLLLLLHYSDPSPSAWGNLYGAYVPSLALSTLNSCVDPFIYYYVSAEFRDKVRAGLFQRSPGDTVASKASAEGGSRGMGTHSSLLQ
In words: PAR4 FLIPR assay (antagonism of agonist peptide-induced calcium mobilization). Format: cell-based. The source says: The FLIPR assay is an exemplary in vitro assay for measuring the activity of the PAR4 antagonists of the present invention. In this assay, intracellular calcium mobilization is induced in PAR4 expressing cells by a PAR4 agonist and calcium mobilization is monitored.
HEK293 cells stably expressing PAR4 were generated by a standard method of transfection of human PAR4 (F2R23) cDNA expression vector and selected based on PAR4 protein expression or mRNA expression. […] These cells also express endogenous PAR1 and can elicit calcium signal upon stimulation with PAR1 agonist peptide. Therefore, the same cells were also used to determine selectivity against PAR1 and agonist activity for both receptors. Cells from HEK293 PAR4 Clone 1.2A (BMS Arctic ID 383940) were propagated and used for calcium mobilization studies.
FLIPR-based calcium mobilization assay in HEK293 cells was used to measure PAR4 antagonism, agonism, and selectivity against PAR1. The activity of the PAR4 antagonists of the present invention were tested in PAR4 expressing cells by monitoring H-Ala-Phe(4-F)-Pro-Gly-Trp-Leu-Val-Lys-Asn-Gy-NH2-induced intracellular calcium mobilization. Counter screens for agonist activity and PAR1 antagonist activity were also performed. Briefly, PAR1/PAR4-expressing HEK293 cells were grown in DMEM (Life Technology, Grand Island, NY) containing 10% heat-inactivated FBS, 1% Penicillin-Streptomycin, 10 μg/mL blasticidin, and 100 μg/mL Zeocin at 37° C. with 5% CO2. Cells were plated overnight prior to the experiment in a black 384-well Purecoat Amine clear bottom plate (Becton Dickinson Biosciences, San Jose, CA) at 10,000 cells/well in 30 μL growth medium and incubated in a humidified chamber at 37° C. with 5% CO2 overnight. Prior to compound addition, the cell medium was replaced with 40 μL of 1× calcium and magnesium-containing Hank's Balanced Saline Solution (HBSS) (with 20 mM HEPES) and 1:1000 diluted fluorescent calcium indicator (Codex Biosolutions, Gaithersburg, MD). After a 30 minute incubation period at 37° C. and a further 30 minute incubation and equilibration period at room temperature, 20 μL test compound (diluted in 1×HBSS buffer) was added at various concentrations at 0.17% dimethyl sulfoxide (DMSO) final concentration. Changes in fluorescence intensity were measured using a Functional Drug Screening System (FDSS, Hamamatsu, Japan) to determine agonist activities. The cells were then incubated for 30 minutes at room temperature followed by addition of 20 μL of agonist peptide for antagonist activity measurement. […] Compound potency was derived from 11-point concentration-response curves.
On to `COc1ccc(NC(=O)OC[C@H]2COc3c(cc(C)c4oc(-c5cc(C)cc6nc(OC)cnc56)cc34)O2)cn1` [Example 16, (R)-(8-(2-methoxy-7-methylquinoxalin-5-yl)-6-methyl-2,3-dihydro-[1,4]dioxino[2,3-e]benzofuran-3-yl)methyl (6-methoxypyridin-3-yl)carbamate], for which the IC50 came out at 3 nM.

For `COc1ccc(NC(=O)OCC2Cc3c(cc(Cl)c4nc(-c5cc(C)cc6nc(OC)cnc56)sc34)O2)cn1` (stereo not shown) [Example 17, (4-chloro-2-(2-methoxy-7-methylquinoxalin-5-yl)-7,8-dihydrobenzofuro[5,4-d]thiazol-7-yl)methyl (6-methoxypyridin-3-yl)carbamate], the IC50 came to 3.1 nM.

`COc1cnc2c(-c3nc4c(Cl)cc5c(c4s3)CC(COC(=O)Nc3cccnc3)O5)cc(C)cc2n1` (stereo not shown) [Example 18, (4-chloro-2-(2-methoxy-7-methylquinoxalin-5-yl)-7,8-dihydrobenzofuro[5,4-d]thiazol-7-yl)methyl pyridin-3-ylcarbamate]: the concentration for half-maximal inhibition (IC50) is 5.7 nM.

Consider `COc1cnc2c(-c3nc4c(Cl)cc5c(c4s3)CC(COC(=O)Nc3ccc(C)nc3)O5)cc(C)cc2n1` (stereo not shown) [Example 19, (4-chloro-2-(2-methoxy-7-methylquinoxalin-5-yl)-7,8-dihydrobenzofuro[5,4-d]thiazol-7-yl)methyl (6-methylpyridin-3-yl)carbamate], for which the half-inhibitory concentration (IC50) came out at 2.6 nM.

With `Cc1cc(-c2nc3c(F)cc4c(c3s2)OCC(CNC(=O)OC(C)(C)C)O4)c2ncc(OC(F)F)nc2c1` (stereo not shown) [Example 21, tert-butyl ((2-(2-(difluoromethoxy)-7-methylquinoxalin-5-yl)-4-fluoro-7,8-dihydro-[1,4]dioxino[2′,3′:3,4]benzo[1,2-d]thiazol-7-yl)methyl)carbamate], the IC50 amounted to 10 nM.

`Cc1cc(-c2nc3c(F)cc4c(c3s2)OC(CO)CO4)c2ncc(OC(F)F)nc2c1` (stereo not shown) [Example 22, (2-(2-(difluoromethoxy)-7-methylquinoxalin-5-yl)-4-fluoro-7,8-dihydro-[1,4]dioxino[2′,3′:3,4]benzo[1,2-d]thiazol-8-yl)methanol]: the concentration for half-maximal inhibition (IC50) is 8.8 nM.

On to `Cc1cc(-c2nc3c(F)cc4c(c3s2)OC(CNC(=O)OC(C)(C)C)CO4)c2ncc(OC(F)F)nc2c1` (stereo not shown) [Example 23, tert-butyl ((2-(2-(difluoromethoxy)-7-methylquinoxalin-5-yl)-4-fluoro-7,8-dihydro-[1,4]dioxino[2′,3′:3,4]benzo[1,2-d]thiazol-8-yl)methyl)carbamate], for which the IC50 worked out at 9.4 nM.

Take `COc1cnc2c(-c3nc4c(F)cc5c(c4s3)OC(COC(=O)Nc3ccccc3)CO5)cc(C)cc2n1` (stereo not shown) [Example 24, (4-fluoro-2-(2-methoxy-7-methylquinoxalin-5-yl)-7,8-dihydro-[1,4]dioxino[2′,3′:3,4]benzo[1,2-d]thiazol-8-yl)methyl phenylcarbamate]: the IC50 worked out at 9 nM.

As to `COc1cnc2c(-c3nc4c(Cl)cc5c(c4s3)OC[C@H](COC(=O)Nc3cncc(Cl)c3)O5)cc(C)cc2n1` [Example 25, (R)-(4-chloro-2-(2-methoxy-7-methylquinoxalin-5-yl)-7,8-dihydro-[1,4]dioxino[2′,3′:3,4]benzo[1,2-d]thiazol-7-yl)methyl (5-chloropyridin-3-yl)carbamate], the IC50 stood at 25 nM.

As to `COc1cnc2c(-c3nc4c(Cl)cc5c(c4s3)OC[C@H](COC(=O)Nc3ccccc3)O5)cc(C)cc2n1` [Example 26, (R)-(4-chloro-2-(2-methoxy-7-methylquinoxalin-5-yl)-7,8-dihydro-[1,4]dioxino[2′,3′:3,4]benzo[1,2-d]thiazol-7-yl)methyl phenylcarbamate], the 50% inhibitory concentration (IC50) turned out to be 10 nM.

For `COc1cnc2c(-c3nc4c(Cl)cc5c(c4s3)OC[C@H](COC(=O)Nc3cccc(C#N)c3)O5)cc(C)cc2n1` [Example 27, (R)-(4-chloro-2-(2-methoxy-7-methylquinoxalin-5-yl)-7,8-dihydro-[1,4]dioxino[2′,3′:3,4]benzo[1,2-d]thiazol-7-yl)methyl (3-cyanophenyl)carbamate], the IC50 is 2.2 nM.

Regarding `COc1cnc2c(-c3nc4c(Cl)cc5c(c4s3)OC[C@H](COC(=O)Nc3cncc(F)c3)O5)cc(C)cc2n1` [Example 28, (R)-(4-chloro-2-(2-methoxy-7-methylquinoxalin-5-yl)-7,8-dihydro-[1,4]dioxino[2′,3′:3,4]benzo[1,2-d]thiazol-7-yl)methyl (5-fluoropyridin-3-yl)carbamate], the IC50 worked out at 480 nM.

Take `COc1cnc2c(-c3nc4c(Cl)cc5c(c4s3)OC[C@H](COC(=O)Nc3ccc(F)nc3)O5)cc(C)cc2n1` [Example 29, (R)-(4-chloro-2-(2-methoxy-7-methylquinoxalin-5-yl)-7,8-dihydro-[1,4]dioxino[2′,3′:3,4]benzo[1,2-d]thiazol-7-yl)methyl (6-fluoropyridin-3-yl)carbamate]: the IC50 is 2.9 nM.

Take `COc1cnc2c(-c3nc4c(Cl)cc5c(c4s3)OC[C@H](COC(=O)Nc3ccncc3)O5)cc(C)cc2n1` [Example 30, (R)-(4-chloro-2-(2-methoxy-7-methylquinoxalin-5-yl)-7,8-dihydro-[1,4]dioxino[2′,3′:3,4]benzo[1,2-d]thiazol-7-yl)methyl pyridin-4-ylcarbamate]: the IC50 is 3.6 nM.

Take `COc1cnc2c(-c3nc4c(Cl)cc5c(c4s3)OC[C@H](COC(=O)Nc3cccnc3)O5)cc(C)cc2n1` [Example 31, (R)-(4-chloro-2-(2-methoxy-7-methylquinoxalin-5-yl)-7,8-dihydro-[1,4]dioxino[2′,3′:3,4]benzo[1,2-d]thiazol-7-yl)methyl pyridin-3-ylcarbamate]: the IC50 came to 0.9 nM.

`COc1cnc2c(-c3nc4c(Cl)cc5c(c4s3)OC[C@H](COC(=O)Nc3ccc(Cl)nc3)O5)cc(C)cc2n1` [Example 32, (R)-(4-chloro-2-(2-methoxy-7-methylquinoxalin-5-yl)-7,8-dihydro-[1,4]dioxino[2′,3′:3,4]benzo[1,2-d]thiazol-7-yl)methyl (6-chloropyridin-3-yl)carbamate]: the 50% inhibitory concentration (IC50) is 1.8 nM.

Turning to `COc1cnc2c(-c3nc4c(Cl)cc5c(c4s3)OC[C@H](COC(=O)Nc3ccnc(C)c3)O5)cc(C)cc2n1` [Example 33, (R)-(4-chloro-2-(2-methoxy-7-methylquinoxalin-5-yl)-7,8-dihydro-[1,4]dioxino[2′,3′:3,4]benzo[1,2-d]thiazol-7-yl)methyl (2-methylpyridin-4-yl)carbamate], the IC50 stood at 2.8 nM.

With `COc1cnc2c(-c3nc4c(Cl)cc5c(c4s3)OC[C@H](COC(=O)Nc3ccnnc3)O5)cc(C)cc2n1` [Example 34, (R)-(4-chloro-2-(2-methoxy-7-methylquinoxalin-5-yl)-7,8-dihydro-[1,4]dioxino[2′,3′:3,4]benzo[1,2-d]thiazol-7-yl)methyl pyridazin-4-ylcarbamate], the IC50 was found to be 3.3 nM.

On to `COc1cnc2c(-c3nc4c(Cl)cc5c(c4s3)OC[C@H](COC(=O)Nc3ccc(C#N)nc3)O5)cc(C)cc2n1` [Example 35, (R)-(4-chloro-2-(2-methoxy-7-methylquinoxalin-5-yl)-7,8-dihydro-[1,4]dioxino[2′,3′:3,4]benzo[1,2-d]thiazol-7-yl)methyl (6-cyanopyridin-3-yl)carbamate], for which the half-maximal inhibitory concentration (IC50) was found to be 1.4 nM.
